EC50 data for 33 molecules are collected here from patent publication US20230406843A1, “Progranulin Modulators and Methods of Using the Same” (ARKUDA THERAPEUTICS, priority 2020, published 2023).

By EC50 is commonly meant the concentration giving half of the maximal effect.

The structures appear in SMILES notation. Where only a bound is given, the exact number is not on record here.

In the assay the test system is progranulin. As to the kind of experiment: Progranulin induction cellular assay (ELISA of secreted mouse PGRN). The format is cell-based. Conditions: progranulin induction assay; mouse pMG, primary cortical neurons and BV-2 cell lines named, cell type not given; ELISA-based readout; read-out: EC50. An outline of the steps: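 Secreted mouse PGRN in culture medium is measured by ELISA. Cells tested are BV-2, primary cortical neurons and primary microglia. BV-2 cells are plated a day ahead, allowed 1 h to attach, then incubated 16 h.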
Regarding `CCO[C@@H]1CO[C@@H](C(=O)N2CCc3ccccc3[C@@H]2c2ccc(F)cc2)C[C@@H]1N` [Compound 5063, ((2R,4S,5S)-4-amino-5-ethoxytetrahydro-2H-pyran-2-yl)((S)-1-(4-fluorophenyl)-3,4-dihydroisoquinolin-2(1H)-yl)methanone], the EC50 amounted to 35 nM.

On to `N[C@H]1C[C@H](C(=O)N2CCc3ccccc3[C@@H]2c2ccc(F)cc2)OC[C@@H]1CO` [Compound 5537, ((2R,4S,5S)-4-amino-5-(hydroxymethyl)tetrahydro-2H-pyran-2-yl)((S)-1-(4-fluorophenyl)-3,4-dihydroisoquinolin-2(1H)-yl)methanone], for which the EC50 came out at 29 nM.

Turning to `N[C@H]1C[C@H](C(=O)N2CCc3ccccc3[C@@H]2c2ccc(F)cc2)OC[C@@H]1OC(F)(F)F` [Compound 5507, ((2R,4S,5R)-4-amino-5-(trifluoromethoxy)tetrahydro-2H-pyran-2-yl)((S)-1-(4-fluorophenyl)-3,4-dihydroisoquinolin-2(1H)-yl)methanone], the EC50 turned out to be 1 nM.

`N[C@H]1CO[C@H](C(=O)N2CCc3ccccc3[C@@H]2c2ccc(F)cc2)C[C@@H]1F` [Compound 5059, ((2S,4S,5S)-5-amino-4-fluorotetrahydro-2H-pyran-2-yl)((S)-1-(4-fluorophenyl)-3,4-dihydroisoquinolin-2(1H)-yl)methanone]: the concentration for a half-maximal effect (EC50) came to 344 nM.

Consider `CN[C@@H]1CO[C@@H](C(=O)N2CCc3ccccc3[C@@H]2c2ccc(F)cc2)C[C@@H]1O` [Compound 5431, ((S)-1-(4-fluorophenyl)-3,4-dihydroisoquinolin-2(1H)-yl)((2R,4S,5R)-4-hydroxy-5-(methylamino)tetrahydro-2H-pyran-2-yl)methanone], for which the concentration for a half-maximal effect (EC50) worked out at 29 nM.

`CN1CCN[C@H]2C[C@H](C(=O)N3CCc4ccccc4[C@@H]3c3ccc(F)cc3)OC[C@@H]21` [Compound 5462, ((S)-1-(4-fluorophenyl)-3,4-dihydroisoquinolin-2(1H)-yl)((4aR,7R,8aS)-4-methyloctahydro-2H-pyrano[3,4-b]pyrazin-7-yl)methanone]: the concentration for a half-maximal effect (EC50) stood at 3 nM.

Consider `O=C([C@@H]1CNCCO1)N1CCc2ccccc2[C@@H]1c1ccc(F)cc1` [Compound 5406, ((S)-1-(4-fluorophenyl)-3,4-dihydroisoquinolin-2(1H)-yl)((S)-morpholin-2-yl)methanone], for which the EC50 was 715 nM.

With `CO[C@H]1C[C@H](C(=O)N2CCc3ccccc3[C@@H]2c2ccc(F)cc2F)OC[C@H]1N` [Compound 5259], the EC50 stood at 46 nM.

Consider `C[N-][S@+2](C)([O-])[C@H]1CO[C@@H](C(=O)N2CCc3ccccc3[C@@H]2c2ccc(F)cc2)C[C@@H]1N` (single isomer, unassigned) [Compound 5556], for which the EC50 turned out to be 70 nM.

Consider `O=C([C@H]1C[C@@H]2OCCN[C@@H]2CO1)N1CCc2ccccc2[C@@H]1c1ccc(F)cc1` [Compound 5432, ((S)-1-(4-fluorophenyl)-3,4-dihydroisoquinolin-2(1H)-yl)((4aR,7R,8aS)-hexahydro-2H,5H-pyrano[4,3-b][1,4]oxazin-7-yl)methanone], for which the EC50 stood at 113 nM.

For the molecule `O=C([C@@H]1CC[C@@H](NCCO)CO1)N1CCc2ccccc2[C@@H]1c1ccc(F)cc1` [Compound 5032, ((S)-1-(4-fluorophenyl)-3,4-dihydroisoquinolin-2(1H)-yl)((2S,5R)-5-((2-hydroxyethyl)amino)tetrahydro-2H-pyran-2-yl)methanone], the half-maximal effective concentration (EC50) amounted to 213 nM.

As for `N[C@@H]1C[C@@H](C(=O)N2CCc3ccccc3[C@@H]2c2ccc(F)cc2)OC[C@H]1O` [Compound 5068, ((2S,4R,5S)-4-amino-5-hydroxytetrahydro-2H-pyran-2-yl)((S)-1-(4-fluorophenyl)-3,4-dihydroisoquinolin-2(1H)-yl)methanone], the EC50 worked out at 376 nM.

Regarding `O=C([C@H]1CNCCO1)N1CCc2ccccc2[C@@H]1c1ccc(F)cc1` [Compound 5405, ((S)-1-(4-fluorophenyl)-3,4-dihydroisoquinolin-2(1H)-yl)((R)-morpholin-2-yl)methanone], the EC50 amounted to 736 nM.

Regarding `N[C@H]1CO[C@@H](C(=O)N2CCc3ccccc3[C@@H]2c2ccc(F)cc2)C[C@H]1F` [Compound 5075, ((2R,4R,5S)-5-amino-4-fluorotetrahydro-2H-pyran-2-yl)((S)-1-(4-fluorophenyl)-3,4-dihydroisoquinolin-2(1H)-yl)methanone], the EC50 came out at 529 nM.

`O=C([C@H]1OCCNC[C@H]1F)N1CCc2ccccc2[C@@H]1c1ccc(F)cc1` [Compound 5421]: the EC50 stood at 843 nM.

On to `CC[S@](=N)(=O)[C@H]1CO[C@@H](C(=O)N2CCc3ccccc3[C@@H]2c2ccc(F)cc2)C[C@@H]1N` (single isomer, unassigned) [Compound 5550], for which the EC50 amounted to 17 nM.

Regarding `COCCN[C@H]1C[C@H](C(=O)N2CCc3ccccc3[C@@H]2c2ccc(F)cc2)OC[C@@H]1OC` [Compound 5569, ((S)-1-(4-fluorophenyl)-3,4-dihydroisoquinolin-2(1H)-yl)((2R,4S,5R)-5-methoxy-4-((2-methoxyethyl)amino)tetrahydro-2H-pyran-2-yl)methanone], the EC50 is greater than 300 nM.

Regarding `CCC(=O)N1CCN[C@H]2C[C@H](C(=O)N3CCc4ccccc4[C@@H]3c3ccc(F)cc3)OC[C@@H]21` (single isomer, unassigned) [Compound 5544], the EC50 stood at 19 nM.

Regarding `NCC1(O)COC(C(=O)N2CCc3ccccc3[C@@H]2c2ccc(F)cc2)C1` (single isomer, unassigned) [Compound 5007], the EC50 was 140 nM.

`C#CCO[C@H]1COC(C(=O)N2CCc3ccccc3[C@@H]2c2ccc(F)cc2)C[C@@H]1NCCCOC` (stereo partly drawn) [Compound 5546]: the EC50 turned out to be 30 nM.

On to `N[C@H]1CO[C@H](C(=O)N2CCc3ccccc3[C@@H]2c2ccc(F)cc2)C[C@H]1F` [Compound 5086, ((2S,4R,5S)-5-amino-4-fluorotetrahydro-2H-pyran-2-yl)((S)-1-(4-fluorophenyl)-3,4-dihydroisoquinolin-2(1H)-yl)methanone], for which the EC50 was 194 nM.

On to `N[C@@H]1COC(C(=O)N2CCc3ccccc3[C@@H]2c2ccc(F)cc2)C1` (stereo in doubt) [Compound 5013, ((2R,4S)-4-aminotetrahydrofuran-2-yl)((S)-1-(4-fluorophenyl)-3,4-dihydroisoquinolin-2(1H)-yl)methanone], for which the EC50 was 323 nM.

Regarding `NCC1(O)CCO[C@@H](C(=O)N2CCc3ccccc3[C@@H]2c2ccc(F)cc2)C1` (stereo in doubt) [Compound 5540, ((2R,4R)-4-(aminomethyl)-4-hydroxytetrahydro-2H-pyran-2-yl)((S)-1-(4-fluorophenyl)-3,4-dihydroisoquinolin-2(1H)-yl)methanone], the EC50 is 210 nM.

`CC[S@@](=O)(=NC)[C@H]1CO[C@@H](C(=O)N2CCc3ccccc3[C@@H]2c2ccc(F)cc2)C[C@@H]1N` (single isomer, unassigned) [Compound 5552]: the concentration giving a half-maximal response (EC50) came to 11 nM.

`O=C([C@H]1OCCN[C@@H]1CF)N1CCc2ccccc2[C@@H]1c1ccc(F)cc1` [Compound 5501]: the concentration giving a half-maximal response (EC50) turned out to be 3860 nM.

Turning to `NC[C@]1(O)COC(C(=O)N2CCc3ccccc3[C@@H]2c2ccc(F)cc2)C1` (single isomer, unassigned) [Compound 5005], the EC50 was found to be 216 nM.

As for `N[C@H]1CO[C@@H](C(=O)N2CCc3ccccc3[C@@H]2c2ccc(F)cc2)C[C@@H]1O` [Compound 5070, ((2R,4S,5S)-5-amino-4-hydroxytetrahydro-2H-pyran-2-yl)((S)-1-(4-fluorophenyl)-3,4-dihydroisoquinolin-2(1H)-yl)methanone], the EC50 worked out at 153 nM.

In the case of `CCC(=O)N[C@H]1CO[C@@H](C(=O)N2CCc3ccccc3[C@@H]2c2ccc(F)cc2)C[C@@H]1N` [Compound 5513, N-((3R,4S,6R)-4-amino-6-((S)-1-(4-fluorophenyl)-1,2,3,4-tetrahydroisoquinoline-2-carbonyl)tetrahydro-2H-pyran-3-yl)propionamide], the EC50 amounted to 30 nM.

As for `O=C([C@H]1C[C@@H]2NCCO[C@H]2CO1)N1CCc2ccccc2[C@@H]1c1ccc(F)cc1` [Compound 5266, ((S)-1-(4-fluorophenyl)-3,4-dihydroisoquinolin-2(1H)-yl)((4aR,7R,8aS)-octahydropyrano[3,4-b][1,4]oxazin-7-yl)methanone], the EC50 amounted to 36 nM.

In the case of `N[C@H]1C[C@H](C(=O)N2CCc3ccccc3[C@@H]2c2ccc(F)cc2)OC[C@H]1F` [Compound 5087, ((2R,4S,5S)-4-amino-5-fluorotetrahydro-2H-pyran-2-yl)((S)-1-(4-fluorophenyl)-3,4-dihydroisoquinolin-2(1H)-yl)methanone], the EC50 is 42.1 nM.

In the case of `COCCN[C@@H]1CC[C@@H](C(=O)N2CCc3ccccc3[C@@H]2c2ccc(F)cc2)OC1` [Compound 5035, ((S)-1-(4-fluorophenyl)-3,4-dihydroisoquinolin-2(1H)-yl)((2S,5R)-5-((2-methoxyethyl)amino)tetrahydro-2H-pyran-2-yl)methanone], the EC50 came to 371 nM.

For the molecule `N[C@@H]1CO[C@@H](C(=O)N2CCc3ccccc3[C@@H]2c2ccc(F)cc2)C[C@@H]1F` [Compound 5064, ((2R,4S,5R)-5-amino-4-fluorotetrahydro-2H-pyran-2-yl)((S)-1-(4-fluorophenyl)-3,4-dihydroisoquinolin-2(1H)-yl)methanone], the concentration giving a half-maximal response (EC50) is 102 nM.

With `C[C@]1(C(=O)N2CCc3ccccc3[C@@H]2c2ccc(F)cc2)C[C@@H](N)CCO1` (single isomer, unassigned) [Compound 5235], the EC50 was 372 nM.
